This is an account of results in patent publication US9278922B2 (ABBVIE INC., priority 2009, dated 2016).

Usually EC50 stands for the midpoint of the concentration-response curve.

The assay relates to HCV 1b-Con-1 replicon. In words: HCV 1b-Con-1 replicon assay (luciferase reporter gene, HuH-7 cells). It counts as cell-based, Hepatitis C virus (HCV) genotype 1b-Con1. Conditions: Hepatitis C virus, Huh-7, luciferase reporter gene activity in the replicon, in the presence of 5% FBS. (In general: In antiviral work, replicon cells carry a viral genome segment that copies itself.)

Structures are written as SMILES.

As for `COC(=O)N[C@H](C(=O)N1CCC[C@H]1C(=O)Nc1ccc(CN(Cc2ccc(NC(=O)[C@@H]3CCCN3C(=O)[C@H](NC(=O)[C@H]3CCCO3)c3ccccc3)cc2)c2ccccc2)cc1)C(C)(C)C` [Example 88, N-(methoxycarbonyl)-3-methyl-L-valyl-N-[4-({phenyl[4-({1-[(2R)-2-phenyl-2-{[(2R)-tetrahydrofuran-2-ylcarbonyl]amino}acetyl]-L-prolyl}amino)benzyl]amino}methyl)phenyl]-L-prolinamide], the EC50 is less than 1 nM. On to `CCN(CC)[C@@H](C(=O)N1CCC[C@H]1C(=O)Nc1ccc(CN(Cc2ccc(NC(=O)[C@@H]3CCCN3C(=O)[C@@H](c3ccccc3)N(CC)CC)cc2)c2ccc(F)c(F)c2)cc1)c1ccccc1` [Example 89, (2S,2′S)-N,N′-{[(3,4-difluorophenyl)imino]bis(methanediylbenzene-4,1-diyl)}bis{1-[(2R)-2-(diethylamino)-2-phenylacetyl]pyrrolidine-2-carboxamide}], for which the 50% effective concentration (EC50) is less than 1 nM. Consider `COC(=O)N[C@H](C(=O)N1CCC[C@H]1C(=O)Nc1ccc(CN(Cc2ccc(NC(=O)[C@@H]3CCCN3C(=O)[C@@H](NC(=O)OC)C(C)(C)C)cc2)c2ccc(F)c(F)c2)cc1)C(C)(C)C` [Example 90, dimethyl ([(3,4-difluorophenyl)imino]bis{methanediylbenzene-4,1-diylcarbamoyl(2S)pyrrolidine-2,1-diyl[(2S)-3,3-dimethyl-1-oxobutane-1,2-diyl]})biscarbamate], for which the 50% effective concentration (EC50) is less than 1 nM. The result for `COC(=O)N[C@@H](CCc1ccccc1)C(=O)N1CCC[C@H]1C(=O)Nc1ccc(CN(Cc2ccc(NC(=O)[C@@H]3CCCN3C(=O)[C@H](CCc3ccccc3)NC(=O)OC)cc2)c2ccccc2)cc1` [Example 91, dimethyl[(phenylimino)bis{methanediylbenzene-4,1-diylcarbamoyl(2S)pyrrolidine-2,1-diyl[(2S)-1-oxo-4-phenylbutane-1,2-diyl]}]biscarbamate] reads 1 to 10 nM.

For `O=C(Nc1ccc(CN(Cc2ccc(NC(=O)[C@@H]3CCCN3C(=O)[C@@H](c3ccccc3)N3CCCCC3)cc2)c2ccc(F)cc2)cc1)[C@@H]1CCCN1C(=O)[C@@H](c1ccccc1)N1CCCCC1` [Example 92, (2S,2′S)-N,N′-{[(4-fluorophenyl)imino]bis(methanediylbenzene-4,1-diyl)}bis{1-[(2R)-2-phenyl-2-piperidin-1-ylacetyl]pyrrolidine-2-carboxamide}], the concentration for a half-maximal effect (EC50) is less than 1 nM.

Consider `COC(=O)N[C@H](C(=O)N1CSC(C)(C)[C@H]1C(=O)Nc1ccc(CN(Cc2ccc(NC(=O)[C@H]3N(C(=O)[C@@H](NC(=O)OC)C(C)(C)C)CSC3(C)C)cc2)c2ccccc2)cc1)C(C)(C)C` [Example 93, methyl [(1S)-1-{[(4R)-4-{[4-({[4-({[(4R)-3-{(2S)-2-[(methoxycarbonyl)amino]-3,3-dimethylbutanoyl}-5,5-dimethyl-1,3-thiazolidin-4-yl]carbonyl}amino)benzyl](phenyl)amino}methyl)phenyl]carbamoyl}-5,5-dimethyl-1,3-thiazolidin-3-yl]carbonyl}-2,2-dimethylpropyl]carbamate], for which the EC50 was 1 to 10 nM.

On to `COC(=O)N[C@H](C(=O)N1C[C@@H](F)C[C@H]1C(=O)Nc1ccc(CN(Cc2ccc(NC(=O)[C@@H]3C[C@H](F)CN3C(=O)[C@@H](NC(=O)OC)C(C)(C)C)cc2)c2ccccc2)cc1)C(C)(C)C` [Example 94], for which the EC50 is 1 to 10 nM. The result for `CCN(CC)[C@@H](C(=O)N1CCC[C@H]1c1nc2cc(CN(Cc3ccc4[nH]c([C@@H]5CCCN5C(=O)[C@@H](c5ccccc5)N(CC)CC)nc4c3)c3ccc(F)cc3)ccc2[nH]1)c1ccccc1` [Example 95, N,N-bis[(2-{(2S)-1-[(2R)-2-(diethylamino)-2-phenylacetyl]pyrrolidin-2-yl}-1H-benzimidazol-5-yl)methyl]-4-fluoroaniline] reads less than 1 nM; that for `COC(=O)N[C@H](C(=O)N1CCC[C@H]1c1nc2cc(CN(Cc3ccc4[nH]c([C@@H]5CCCN5C(=O)[C@@H](NC(=O)OC)C(C)C)nc4c3)c3ccc(F)cc3)ccc2[nH]1)C(C)C` [Example 96, methyl [(1S)-1-{[(2S)-2-(5-{[(4-fluorophenyl)({2-[(2S)-1-{(2S)-2-[(methoxycarbonyl)amino]-3-methylbutanoyl}pyrrolidin-2-yl]-1H-benzimidazol-5-yl}methyl)amino]methyl}-1H-benzimidazol-2-yl)pyrrolidin-1-yl]carbonyl}-2-methylpropyl]carbamate], less than 1 nM. Turning to `COC(=O)N[C@H](C(=O)N1CCC[C@H]1C(=O)Nc1ccc(CN(Cc2ccc(NC(=O)[C@@H]3CCCN3C(=O)[C@@H](NC(=O)OC)[C@@H](C)O)cc2)[C@@H]2CCOC2)cc1)[C@@H](C)O` [Example 97, dimethyl ([(3R)-tetrahydrofuran-3-ylimino]bis{methanediylbenzene-4,1-diylcarbamoyl(2S)pyrrolidine-2,1-diyl[(2S,3R)-3-hydroxy-1-oxobutane-1,2-diyl]})biscarbamate], the 50% effective concentration (EC50) lay in the range of 100 to 250 nM. For the compound `COC(=O)N[C@H](C(=O)N1CCC[C@H]1C(=O)Nc1ccc(CN(Cc2ccc(NC(=O)[C@@H]3CCCN3C(=O)[C@@H](NC(=O)OC)C(C)(C)O)cc2)c2ccc(F)cc2)cc1)C(C)(C)O` [Example 98, dimethyl ([(4-fluorophenyl)imino]bis{methanediylbenzene-4,1-diylcarbamoyl(25)pyrrolidine-2,1-diyl[(2S)-3-hydroxy-3-methyl-1-oxobutane-1,2-diyl]})biscarbamate], the EC50 was less than 1 nM.

For the compound `COC(=O)N[C@H](C(=O)N1CCC[C@H]1C(=O)Nc1ccc(CN(Cc2ccc3[nH]c([C@@H]4CCCN4C(=O)[C@@H](NC(=O)OC)C(C)(C)O)nc3c2)c2ccc(F)cc2)cc1)C(C)(C)O` [Example 99, 3-hydroxy-N-(methoxycarbonyl)-L-valyl-N-[4-({(4-fluorophenyl)[(2-{(2S)-1-[3-hydroxy-N-(methoxycarbonyl)-L-valyl]pyrrolidin-2-yl}-1H-benzimidazol-5-yl)methyl]amino}methyl)phenyl]-L-prolinamide], the EC50 is less than 1 nM. The result for `COC(=O)N[C@H](C(=O)N1CC[C@H]1C(=O)Nc1ccc(CN(Cc2ccc(NC(=O)[C@@H]3CCN3C(=O)[C@@H](NC(=O)OC)C(C)(C)C)cc2)c2ccc(F)cc2)cc1)C(C)(C)C` [Example 100, methyl [(1S)-1-{[(2S)-2-{[4-({(4-fluorophenyl)[4-({[(2S)-1-{(2S)-2-[(methoxycarbonyl)amino]-3,3-dimethylbutanoyl}azetidin-2-yl]carbonyl}amino)benzyl]amino}methyl)phenyl]carbamoyl}azetidin-1-yl]carbonyl}-2,2-dimethylpropyl]carbamate] reads 1 to 10 nM. The result for `COC(=O)N[C@H](C(=O)N1CCCC[C@H]1C(=O)Nc1ccc(CN(Cc2ccc(NC(=O)[C@@H]3CCCCN3C(=O)[C@@H](NC(=O)OC)C(C)(C)C)cc2)c2ccc(F)cc2)cc1)C(C)(C)C` [Example 101, methyl [(1S)-1-{[(2S)-2-{[4-({(4-fluorophenyl)[4-({[(2S)-1-{(2S)-2-[(methoxycarbonyl)amino]-3,3-dimethylbutanoyl}piperidin-2-yl]carbonyl}amino)benzyl]amino}methyl)phenyl]carbamoyl}piperidin-1-yl]carbonyl}-2,2-dimethylpropyl]carbamate] reads less than 1 nM; that for `O=C(Nc1ccc(CN(Cc2ccc(NC(=O)[C@@H]3C[C@@H](F)CN3C(=O)[C@@H](c3ccccc3)N3CCCCC3)cc2)c2ccc(F)cc2)cc1)[C@@H]1C[C@@H](F)CN1C(=O)[C@@H](c1ccccc1)N1CCCCC1` [Example 102, (2S,4R,2′S,4′R)-N,N′-{[(4-fluorophenyl)imino]bis(methanediylbenzene-4,1-diyl)}bis{4-fluoro-1-[(2R)-2-phenyl-2-piperidin-1-ylacetyl]pyrrolidine-2-carboxamide}], less than 1 nM. Turning to `COC(=O)N[C@H](C(=O)N1C[C@H](F)C[C@H]1C(=O)Nc1ccc(CN(Cc2ccc(NC(=O)[C@@H]3C[C@@H](F)CN3C(=O)[C@@H](NC(=O)OC)C(C)(C)C)cc2)c2ccc(F)cc2)cc1)C(C)(C)C` [Example 103], the concentration for a half-maximal effect (EC50) is less than 1 nM. The result for `COC(=O)N[C@H](C(=O)N1CCC[C@H]1C(=O)Nc1ccc(CN(Cc2ccc(NC(=O)[C@@H]3CCCN3C(=O)[C@@H](NC(=O)OC)C3CCCCC3)cc2)c2ccc(F)cc2)cc1)C1CCCCC1` [Example 104, dimethyl ([(4-fluorophenyl)imino]bis{methanediylbenzene-4,1-diylcarbamoyl(25)pyrrolidine-2,1-diyl[(1S)-1-cyclohexyl-2-oxoethane-2,1-diyl]})biscarbamate] reads less than 1 nM; that for `CCC(O)(CC)C(C(=O)N1CCC[C@H]1C(=O)Nc1ccc(CN(Cc2ccc(NC(=O)[C@@H]3CCCN3C(=O)C(c3ccccc3)C(O)(CC)CC)cc2)c2ccc(F)cc2)cc1)c1ccccc1` (stereo partly drawn) [Example 105, (2S,2′S)-N,N′-{[(4-fluorophenyl)imino]bis(methanediylbenzene-4,1-diyl)}bis[1-(3-ethyl-3-hydroxy-2-phenylpentanoyl)pyrrolidine-2-carboxamide]], less than 1 nM; that for `O=C(Nc1ccc(CN(Cc2ccc(NC(=O)[C@@H]3CCCN3C(=O)C(c3ccccc3)C3(O)CCCC3)cc2)c2ccc(F)cc2)cc1)[C@@H]1CCCN1C(=O)C(c1ccccc1)C1(O)CCCC1` (stereo partly drawn) [Example 106, (2S ,2′S)-N,N′-{[(4-fluorophenyl)imino]bis(methanediylbenzene-4,1-diyl)}bis{1-[(1-hydroxycyclopentyl)(phenyl)acetyl]pyrrolidine-2-carboxamide}], less than 1 nM. `O=C(Nc1ccc(CN(Cc2ccc(NC(=O)[C@@H]3CCCN3C(=O)C(c3ccccc3)C3CCCC3)cc2)c2ccc(F)cc2)cc1)[C@@H]1CCCN1C(=O)C(c1ccccc1)C1CCCC1` (stereo partly drawn) [Example 107, (2S,2′S)-N,N′-{[(4-fluorophenyl)imino]bis(methanediylbenzene-4,1-diyl)}bis{1-[cyclopentyl(phenyl)acetyl]pyrrolidine-2-carboxamide}]: the concentration giving a half-maximal response (EC50) was 10 to 100 nM.
